“And” between values parts separate entries of the source, which are not always exact repeats. Identical values can stand only once. “Also recorded” adds a separate entry of the source.

Data on 2 molecules can be found in article PMC6287543 (International Journal for Parasitology: Drugs and Drug …, 2018).

The conditions of data set [1]: oral 60 mg/BID over 24 weeks; ref Kim et al., 2017; cited from earlier work.
The next data set relates to S. mansoni. Nature of the data set: Murine model of S. mansoni infection: worm burdens recovered by perfusion. The class given is in vivo, Schistosoma mansoni. Particulars: mice; for reduction in female worm burden / reduction in male worm burden: 42 dpi.

Turning to `Cc1c(-c2cnccn2)ssc1=S` [Oltipraz], the tolerability entry in data set [1] is listed as “well-tolerated”.

For the molecule `O=C(C1CCCCC1)N1CC(=O)N2CCc3ccccc3C2C1` (stereo not shown) [PZQ, praziquantel], the “efficacy against 21-day-old juvenile parasites” value with S. mansoni (100 mg/kg PO QDx4 from 21 dpi, 100 mg/kg) was “ineffective; also recorded: essentially inactive”. Besides, the “reduction in female worm burden” value is given as 97% with S. mansoni (single oral 200 mg/kg) and 100% with S. mansoni (single oral 400 mg/kg). Besides, the “reduction in male worm burden” value was 78% in the data set on S. mansoni (single oral 200 mg/kg); 100% and 97% with S. mansoni (single oral 400 mg/kg, 400 mg/kg). Further, the “worm kill, juvenile 21 day-old parasites” value with S. mansoni (single oral doses) was “zero kill”.
